Results: US20240050563A1, “Combination Treatment of Cancer” (Ares Trading S.A., priority 2020, published 2024)

Test system: MC38 colon carcinoma cells
Assay: Syngeneic MC38 tumor model (tumor volume monitoring)
Format: in vivo, C57/BL6 mice
Conditions: MCT4 inhibitor 30 mg/kg p.o. qd, bintrafusp alfa 492 μg/animal i.v. day 0, 3, 6; for % T/C: Day 20, versus Group 1 control (vehicle + mutant non-binding anti-PD-L1 antibody); for reduction of tumor growth: MC38 tumor-bearing C57/BL6 mice, study end day 20
Description: MC38 colon carcinoma cells were obtained from Scripps Research Institute. Cells were tested and verified to be free of adventitious viruses and mycoplasma.
MC38 cells were cultured in DMEM containing 4.5 g/L D-glucose, 2 mM glutamine, and 110 mg/L sodium pyruvate and supplemented with 10% FBS. All cells were maintained at 37° C. and 5% CO2 in aseptic conditions. Cells were passaged upon reaching 50-85% confluence for a total of 2 to 15 passages prior to in vivo implantation. Cells were harvested by trypsinization with TrypLE Express and viable cell counts were determined using a Countess or […] cell counter and trypan blue exclusion staining.
Female C57/BL6 mice were obtained from Charles River Laboratories. They were inoculated (s.c. in the right dorsal flank) with 1×10^6 MC38 cells in 0.1 mL sterile PBS. Treatment was initiated when tumors reached an average volume of approximately 50-80 mm^3 (Day 0).
Test groups of the MC38 tumor-bearing mice (8 animals in each group) were treated with both vehicle (20% Kleptose (HPB) in 50 mM Phosphate pH 7.4 buffer) and a mutant, non-binding anti-PD-L1 antibody (Group 1, control), the MCT4 inhibitor described as Compound 367 in WO 2020/127960 (5-{2-[5-chloro-2-(5-ethoxyquinoline-8-sulfonamido)phenyl]ethynyl}-4-methoxypyridine-2-carboxylic acid; commercially available from, e.g., Selleck Chemicals) (Group 2), bintrafusp alfa (Group 3), or a combination of Compound 367 and bintrafusp alfa (Group 4). In Group 1 (Control Group) the vehicle was administered at 10 ml/kg animal weight, p.o. once daily and Mut PD-L1 i.v. at day 0, 3, and 6 (400 μg/animal). In Groups 2 and 4 the MCT4 inhibitor was administered at 30 mg/kg animal weight (p.o. administration, once per day (qd)). In Groups 3 and 4 bintrafusp alfa was administered 492 μg/animal at day 0, 3, and 6 (i.v. administration). At day 20 the study was terminated. Efficacy of the treatment was evaluated by monitoring tumor volume over the course of the study.

Row | Compound | % T/C [%] | reduction of tumor growth [%]
1 | bintrafusp alfa: anti-PD-L1:TGFβRII fusion protein, CAS 1918149-01-5; light chain SEQ ID NO: 7, heavy chain SEQ ID NO: 8 | 79.7 | 20
2 | CCOc1ccc(S(=O)(=O)Nc2ccc(Cl)cc2C#Cc2cnc(C(=O)O)cc2OC)c2ncccc12 [MCT4 inhibitor, 5-{2-[5-chloro-2-(5-ethoxyquinoline-8-sulfonamido)phenyl]ethynyl}-4-methoxypyridine-2-carboxylic acid] | 79.1 | 20
